In series [1] the test system is Bacillus subtilis DSM 347. The experiment in a line: Antimicrobial activity against Bacillus subtilis. The class given is cell-based. The settings on record: concentrations of 100 μM (stated for 1).
Experimental: (§1) Antimicrobial activities of compounds 1 and 2 against Bacillus subtilis DSM 347, Staphylococcus lentus DSM 6672, Propionibacterium acnes, Xanthomonas campestris, and Septoria tritici, as well as the cytotoxic activity against the cell lines HepG3 (hepatocellular carcinoma) and HT29 (colon adenocarcinoma) were assayed as described by Schneemann et al. [27].
The test system of the next series is Propionibacterium acnes. The experiment in a line: Antimicrobial activity against Propionibacterium acnes. Type of series: cell-based.
Series [2] has as its system Staphylococcus lentus DSM 6672. Kind of series: Antimicrobial activity against Staphylococcus lentus. As to conditions: concentrations of 100 μM (stated for 1). Type of series: cell-based.
Experimental: as §1
Series [3] has as its system Candida albicans DSM 1386. Kind of series: Growth of human pathogenic yeast Candida albicans. Type of series: cell-based. The settings on record: concentrations of 100 μM.
Experimental: (§2) Antimicrobial activities of compounds 1 and 2 against Bacillus subtilis DSM 347, Staphylococcus lentus DSM 6672, Propionibacterium acnes, Xanthomonas campestris, and Septoria tritici, as well as the cytotoxic activity against the cell lines HepG3 (hepatocellular carcinoma) and HT29 (colon adenocarcinoma) were assayed as described by Schneemann et al. [27]. The effect on the growth of human pathogenic yeast, Candida albicans DSM 1386, was measured according to Ohlendorf et al. [28]. The activity of compound 2 against the dermatophyte Trichophyton mentagrophytes was tested as described by Nagel et al. [29].
Series [4] has as its system HT29 (colon adenocarcinoma). Kind of series: Cytotoxic activity against HT29. Type of series: cell-based. The settings on record: test concentrations up to 50 μM (stated for 1).
Experimental: as §1
For a further series, the system named is Xanthomonas campestris. Kind of series: Antimicrobial activity against Xanthomonas campestris. Type of series: cell-based. The settings on record: concentrations of 100 μM (stated for 1).
The test system of the next series is HepG2. Kind of series: Cytotoxic activity against HepG2. Type of series: cell-based. The settings on record: test concentrations up to 50 μM.
Another series relates to Septoria tritici. The experiment in a line: Antimicrobial activity against Septoria tritici. Type of series: cell-based.
Series [5] addresses T1, human recombinant protein tyrosine phosphatase 1B (PTP1B) (Homo sapiens, UniProt P18031).
T1 construct: purchased Biomol SE332-0050
The experiment in a line: PTP1B inhibition assay with substrate IR5 (Biomol green phosphate detection). The class given is biochemical. How it is done: The effect of 1 and 2 on human recombinant protein tyrosine phosphatase 1B (PTP1B) was tested in microtiter plates. […] After warming for 10 min to the assay temperature of 30 °C 5 μL of human recombinant PTP1B (Biomol; CatNo. SE332-0050) stock solution (1 ng/μL) were added. The reaction was started with 50 μL of the substrate IR5 (insulin receptor amino acids 1142–1153 with pTyr at position 1146 (Biosyntan, Berlin, Germany) dissolved in PTP1B assay buffer to a concentration of 0.15 mM. The phosphopeptid IR5 comprises the amino acid sequence Thr-Arg-Asp-Ile-p[…]COOH and is part of the autophosphorylation domain of the insulin receptor (IR). After an incubation period of 25 min at 30°C the reaction was stopped by adding 150 μL of Biomol green (Biomol, CatNo. AK111-0250). PTP1B dephosphorylates the IR5 substrate resulting in the release of orthophosphate which was quantified after incubating for 20 min at 620 nm using the microtiter plate reader Infinite M200 (Tecan Group Ltd., Männedorf, Switzerland). […] IC50 values were determined as duplicates.

The subject of series [6] is etiolated wheat coleoptile. Also on record: method as in PMID 8229019. As to conditions: concentration of 1 mM; cited from earlier work.
Series [7] concerns dermatophytes, including Trichophyton rubrum. Also on record: method as in PMID 5169000. The settings on record: cited from earlier work.
A further series concerns Micrococcus flavus. Also on record: method as in PMID 5169000. As to conditions: cited from earlier work.
Series [8] deals with PTP1B. Also on record: method as in earlier work. The settings on record: substrate p-nitrophenyl phosphate; ref 13 (McCain et al.); read-out: IC50 value against PTP1B; cited from earlier work.
In series [9] the test system is PTP1B. The arrangement: method as in PMID 25819098. As to conditions: read-out: IC50 value against PTP1B; cited from earlier work.
Series [10] deals with glycogen synthase kinase GSK-3 β. Also on record: method as in PMID 27801816. As to conditions: cited from earlier work.
Details of series [11]: method as in doi:10.1007/s11802-014-2216-2. As to conditions: cited from earlier work.
The next series has as its system Botrytis cinerea. The arrangement: method as in PMID 25517217. As to conditions: cited from earlier work.
The next series has as its system Arthrobacter citreus. The arrangement: method as in PMID 646581. As to conditions: cited from earlier work.
The next series has as its system Bacillus brevis. The arrangement: method as in PMID 646581. As to conditions: cited from earlier work.
Series [12] concerns Colletotrichum gleosporoides. The arrangement: method as in PMID 25517217. As to conditions: cited from earlier work.
The subject of another series is Sarcina lutea. Also on record: method as in PMID 646581. As to conditions: cited from earlier work.
The subject of the next series is Rhizoctonia solani. Also on record: method as in PMID 5169000. As to conditions: cited from earlier work.
Series [13] concerns Trichophyton mentagrophytes. Kind of series: Activity against the dermatophyte Trichophyton mentagrophytes. The class given is cell-based. The settings on record: read-out: inhibition of T. mentagrophytes in comparison to the positive control clotrimazole, concentration of 100 μM.
Experimental: as §2
The subject of a further series is leukemia cell line P388. Also on record: method as in PMID 17958319. The settings on record: cited from earlier work.

Converted amounts (≈) assume the structure as drawn. “And” between values parts separate entries of the source, which are not always exact repeats. Equal values may be shown once. “Also recorded” adds a separate entry of the source. Read-outs that look alike come from different tables or passages of the source. Bounds are passed on as bounds.

T1 sequence (P18031 1-322 limits assumed): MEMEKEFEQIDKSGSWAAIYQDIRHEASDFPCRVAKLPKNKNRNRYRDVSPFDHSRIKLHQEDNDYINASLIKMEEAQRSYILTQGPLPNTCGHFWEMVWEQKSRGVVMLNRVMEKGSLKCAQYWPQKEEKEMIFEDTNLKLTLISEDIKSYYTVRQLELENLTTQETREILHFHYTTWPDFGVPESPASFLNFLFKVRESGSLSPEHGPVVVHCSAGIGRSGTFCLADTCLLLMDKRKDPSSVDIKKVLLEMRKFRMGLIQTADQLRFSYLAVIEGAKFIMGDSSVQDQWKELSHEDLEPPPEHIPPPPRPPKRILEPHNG
Experimental for HepG2: as §2
Experimental for Propionibacterium acnes: as §1
Experimental for Septoria tritici: as §2
Experimental for Xanthomonas campestris: as §1

By IC50 is commonly meant the concentration that inhibits the measured activity by half. For the compound `CC1CCCC(CC2Cc3c(O)c(O)cc(O)c3C(=O)O2)O1` (stereo not shown) [compound 1, Asperentin B], in series [1], the “antibiotic activity against Bacillus subtilis” value is listed as “No antibiotic activity; also recorded: did not exhibit”. This compound registered an inhibition at 100 µM with Propionibacterium acnes (Cutibacterium acnes, 100 μM test concentration) of 57%. Moreover, the “antibiotic activity against Staphylococcus lentus” value in [2] is “No antibiotic activity; also recorded: did not exhibit”. The “antibiotic activity against Candida albicans” value in series [3] is on record as “No antibiotic activity”. Further, the “cytotoxic effects against HT29” value in [4] was “did not exhibit cytotoxic activities”. Further, in the series with Xanthomonas campestris, the “antibiotic activity against Xanthomonas campestris” value is listed as “No antibiotic activity; also recorded: did not exhibit”. Also, the “cytotoxic effects against HepG2” value in the series on HepG2 is given as “No activities were not found”. In addition, the “antibiotic activity against Septoria tritici (in words)” value with Septoria tritici (concentrations of 100 μM) is listed as “No antibiotic activity”. Further, the IC50 in series [5] (in vitro, duplicates, read-out: IC50 value against PTP1B) is 2.05 µM and 2 µM.
For the compound `C[C@H]1CCC[C@@H](C[C@H]2Cc3cc(O)cc(O)c3C(=O)O2)O1` [isoasperentin, reference compound], in series [6], the “growth inhibition, etiolated wheat coleoptile assay” value is 100%.
Take “Monoacetyl asperentin [reference compound]”: in series [7], the “MIC, four dermatophytes including Trichophyton rubrum” value was 75 µg/mL. For the same compound, in the series with Micrococcus flavus, the “MIC, Micrococcus flavus” value is 75 µg/mL.
As to `Cc1ccc(C(=O)Nc2ccc(S(=O)(=O)O)c3cc(S(=O)(=O)O)cc(S(=O)(=O)O)c23)cc1NC(=O)c1cccc(NC(=O)Nc2cccc(C(=O)Nc3cc(C(=O)Nc4ccc(S(=O)(=O)O)c5cc(S(=O)(=O)O)cc(S(=O)(=O)O)c45)ccc3C)c2)c1` [suramin], the IC50 in the series with PTP1B [8] was 11 µM.
Regarding `CCCCCCCCCCCCCCCC(=O)C1=C(O)[C@@H](CO)OC1=O` [RK-682, (R)-4-Hydroxy-5-(hydroxymethyl)-3-(1-oxohexadecyl)-2(5H)-furanone], the IC50 in the series on PTP1B [9] is 4.5 µM.
For the compound `Cc1cc2cc(O)cc(O)c2c2oc(=O)cc(O)c12` [pannorin], the “inhibition of GSK-3 β (in words)” value in [10] is recorded as “inhibitor”.
Turning to brevianamide W, the antioxidant activity result in series [11] is recorded as “antioxidant activity”.
As for `C[C@H]1CCC[C@H](C[C@H]2Cc3cc(O)cc(O)c3C(=O)O2)O1` [compound 2, asperentin], the “minimum inhibitory concentration (MIC), five dermatophytes including Trichophyton rubrum” value in series [7] is 75 µg/mL (≈ 257 µM). The “antibiotic activity against Bacillus subtilis” value in [1] is “did not exhibit; also recorded: not inhibited”. In the series on Botrytis cinerea, the “activity against Botrytis cinerea” value was “active”. Further, in the series on Propionibacterium acnes, the “activity against P. acnes (in words)” value is given as “did not show any activity”. In addition, the “antibiotic activity against Staphylococcus lentus” value in series [2] is given as “did not exhibit”. Further, the “MIC, Arthrobacter citreus” value in the series on Arthrobacter citreus was 1 µg/mL (≈ 3.42 µM). In the series on Bacillus brevis, the “MIC, Bacillus brevis” value was 0.05 µg/mL (≈ 0.171 µM). Besides, the “growth inhibition, etiolated wheat coleoptile assay” value in series [6] is 81%. Also, the “cytotoxic effects against HT29” value in [4] is on record as “did not exhibit cytotoxic activities”. In the series on Xanthomonas campestris, the “antibiotic activity against Xanthomonas campestris” value is “did not exhibit”. Also, the “activity against Colletotrichum gleosporoides” value in series [12] was “active”. Further, the “MIC, Sarcina lutea” value in the series with Sarcina lutea is 2000 µg/mL (≈ 6840 µM). Further, in the series with Rhizoctonia solani, the “minimum inhibitory concentration (MIC), Rhizoctonia solani” value is 75 µg/mL (≈ 257 µM). Further, the inhibition at 100 µM in the series with Septoria tritici (Zymoseptoria tritici, read-out: inhibition of S. tritici in comparison to the positive control clotrimazole, concentration of 100 μM) amounted to 83%; in [13], 100%. The “inhibition of PTP1B enzymatic activity (in words)” value in [5] is on record as “did not show any activity; also recorded: did not show any inhibition”.
With `C/C=C/[C@H]1CC(=O)c2cc(C)c(O)c(C)c2O1` [(2R)-2,3-dihydro-7-hydroxy-6,8-dimethyl-2-[(E)-prop-1-enyl]chromen-4-one], the “cytotoxic effects on P388” value in the series with leukemia cell line P388 is on record as “cytotoxic effects”.
Consider “dimethyl asperentin [reference compound]”, for which, in the series on Arthrobacter citreus, the “MIC, Arthrobacter citreus” value is > 100 µg/mL. In addition, the “MIC, Bacillus brevis” value with Bacillus brevis was 10 µg/mL. The “MIC, Sarcina lutea” value in the series on Sarcina lutea is > 100 µg/mL.
For the compound `CC(=O)C(C)c1oc(C)c(C)c(=O)c1C` (stereo not shown) [2,3,5-trimethyl-6-(3-oxobutan-2-yl)-4H-pyran-4-one], the “cytotoxic effects on P388” value in the series on leukemia cell line P388 is listed as “cytotoxic effects”.

The values above are taken from article PMC5484141, “Asperentin B, a New Inhibitor of the Protein Tyrosine Phosphatase 1B” (Marine Drugs, 2017).
